# Measurements taken from patent US4764460A, “Recombinant sigma NS protein” (priority 1985, dated 1988).
# Read-outs that look alike come from different tables or passages of the source.
# Molecular target: T1, rσNS (Reovirus type 3, UniProt P03526)
# T1 construct: made in house; host or cells: E. coli RR1 (pRK248cIts) carrying pRC23-S3
# Test: Inhibition of binding of reovirus ssRNA to rσNS by ribonucleotides
# Details: for remaining activity at 10000 µM: ribonucleotide 10 mM
# Protocol: In a preliminary experiment it was noticed that the capacity of rσNS to bind (ss) RNAs was abolished if all four ribonucleotides were included in the reaction mixture. The ability of each of the four ribonucleotides (ATP, CTP, GTP, and UTP) to inhibit binding was then examined. […] With the amount of rσNS used in these experiments (130 ng per reaction) GTP inhibition was evident between 0.5 mM and 1 mM (Table 3). The other three ribonucleotides caused little interference with binding even at concentrations of 10 mM (Table 3). This was an important observation for developing σNS as a concentrator of (ss) RNA in test samples to be used in hybridization probe assays. […] The isolated (ss) RNA can then be treated with the hybridization probe in a conventional manner. Obviously since the binding of the σNS protein with the (ss) RNA is non-specific, the specificity of the assay is fully determined by the specificity of the hybridization probe for the desired RNA being assayed.
# [1] = read-out: % of [32P]-labeled reovirus ssRNA retained on nitrocellulose membrane, expressed as percentage of control, EXP. 1, ribonucleotide 2 mM (mixture 2 mM each), 130 ng rσNS per reaction
# [2] = read-out: % of [32P]-labeled reovirus ssRNA retained on nitrocellulose membrane, expressed as percentage of control, EXP. 2
# T1 sequence (P03526 whole entry): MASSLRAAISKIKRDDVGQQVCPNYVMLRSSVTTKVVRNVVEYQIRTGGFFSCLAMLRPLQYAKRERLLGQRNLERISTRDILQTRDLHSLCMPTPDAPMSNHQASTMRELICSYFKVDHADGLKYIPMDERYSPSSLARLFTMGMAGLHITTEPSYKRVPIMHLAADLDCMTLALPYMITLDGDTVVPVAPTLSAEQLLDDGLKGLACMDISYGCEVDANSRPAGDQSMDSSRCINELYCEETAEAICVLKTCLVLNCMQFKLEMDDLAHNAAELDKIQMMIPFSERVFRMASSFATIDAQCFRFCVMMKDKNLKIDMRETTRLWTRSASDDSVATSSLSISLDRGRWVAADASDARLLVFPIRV
Compound,remaining activity at 2000 µM [1],remaining activity at 10000 µM [2],"remaining activity at 100 µM (read-out: % of [32P]-labeled reovirus ssRNA retained on nitrocellulose membrane, expressed as percentage of control, EXP. 2, ribonucleotide 0.1 mM)","remaining activity at 500 µM (read-out: % of [32P]-labeled reovirus ssRNA retained on nitrocellulose membrane, expressed as percentage of control, EXP. 2, ribonucleotide 0.5 mM)","remaining activity at 1000 µM (read-out: % of [32P]-labeled reovirus ssRNA retained on nitrocellulose membrane, expressed as percentage of control, EXP. 2, ribonucleotide 1 mM)","remaining activity at 2000 µM (read-out: % of [32P]-labeled reovirus ssRNA retained on nitrocellulose membrane, expressed as percentage of control, EXP. 2, ribonucleotide 2 mM)"
Nc1ncnc2c1ncn2[C@@H]1O[C@H](COP(=O)(O)OP(=O)(O)OP(=O)(O)O)[C@@H](O)[C@H]1O [ATP],61%,95%,,,,
Nc1nc2c(ncn2[C@@H]2O[C@H](COP(=O)(O)OP(=O)(O)OP(=O)(O)O)[C@@H](O)[C@H]2O)c(=O)[nH]1 [GTP],5%,0%,93%,95%,29%,15%
O=c1ccn([C@@H]2O[C@H](COP(=O)(O)OP(=O)(O)OP(=O)(O)O)[C@@H](O)[C@H]2O)c(=O)[nH]1 [UTP],59%,68%,,,,
Nc1ccn([C@@H]2O[C@H](COP(=O)(O)OP(=O)(O)OP(=O)(O)O)[C@@H](O)[C@H]2O)c(=O)n1 [CTP],58%,81%,,,,
